Key:
[1] = system: Mus musculus; assay: In vivo calcemic effect was tested in vitamin D replete normal […] mice by measuring calcium levels in serum; format: functional; set-up: reference not given here
[2] = target: T1, Vitamin D3 receptor (Homo sapiens) (UniProt P11473); assay: Relative affinity compared to Calcitriol in displacement of [3H]1H]1-alpha,25(OH)2D3 from Vitamin D3 receptor in HL-60 cells; format: functional, cell-based
T1 sequence (whole entry): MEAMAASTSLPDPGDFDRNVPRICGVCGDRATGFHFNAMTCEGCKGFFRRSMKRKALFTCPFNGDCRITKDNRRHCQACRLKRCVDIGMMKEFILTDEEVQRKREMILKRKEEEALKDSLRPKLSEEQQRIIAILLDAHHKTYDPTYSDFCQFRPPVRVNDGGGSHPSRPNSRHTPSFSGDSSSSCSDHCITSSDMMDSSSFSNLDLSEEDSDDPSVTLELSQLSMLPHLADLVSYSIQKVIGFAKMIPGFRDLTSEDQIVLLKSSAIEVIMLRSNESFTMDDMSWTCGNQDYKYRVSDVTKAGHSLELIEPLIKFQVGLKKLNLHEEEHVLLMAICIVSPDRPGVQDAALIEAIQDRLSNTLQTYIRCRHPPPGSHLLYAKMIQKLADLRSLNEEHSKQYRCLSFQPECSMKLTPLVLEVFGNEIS

[3] = target: T1, Vitamin D3 receptor (Homo sapiens); assay: Relative affinity compared to Calcitriol in displacement of [3H]1H]1-alpha,25(OH)2D3 from vitamin D3 receptor in […] cells; format: cell-based
[4] = target: T2, Vitamin D3 receptor (Sus scrofa) (UniProt A3RGC1); assay: Affinity for pig intestinal mucosa Vitamin D3 receptor (VDR); format: tissue-based
T2 sequence (whole entry): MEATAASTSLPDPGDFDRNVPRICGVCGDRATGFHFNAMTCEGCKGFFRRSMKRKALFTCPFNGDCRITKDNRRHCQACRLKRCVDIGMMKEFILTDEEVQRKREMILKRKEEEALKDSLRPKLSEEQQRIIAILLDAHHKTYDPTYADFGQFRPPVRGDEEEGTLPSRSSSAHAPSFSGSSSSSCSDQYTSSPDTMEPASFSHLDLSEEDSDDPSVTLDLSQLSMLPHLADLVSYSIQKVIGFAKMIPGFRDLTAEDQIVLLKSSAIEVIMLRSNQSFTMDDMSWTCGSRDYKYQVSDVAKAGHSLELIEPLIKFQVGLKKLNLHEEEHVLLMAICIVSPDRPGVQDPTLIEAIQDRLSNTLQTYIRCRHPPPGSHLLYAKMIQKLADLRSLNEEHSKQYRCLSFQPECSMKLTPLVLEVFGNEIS

[5] = target: T1, Vitamin D3 receptor (Homo sapiens); assay: Relative affinity compared to Calcitriol in displacement of [3H]1H]1-alpha,25(OH)2D3 from vitamin D receptor (VDR) in MG-63 cells; format: functional, cell-based
[6] = system: keratinocytes (Homo sapiens); assay: Antiproliferative activity relative to Calcitriol in Keratinocyte cell lines

Work on `C=C1/C(=C/C=C/[C@@H]2CC[C@H]([C@H](C)CC#CC(C)(C)O)C2(C)C)C[C@@H](O)C[C@@H]1O` yielded an Activity [1] of 0.25, an Activity [2] of 100% and an Activity [3] of 200%. The Activity [4] was 40.
`C=C1/C(=C/C=C/[C@@H]2CC[C@H]([C@H](C)CCCC(C)(C)O)[C@@]2(C)CCC)C[C@@H](O)C[C@@H]1O` gave an Activity [5] of 8%, an Activity [1] of 1 and an Activity [2] of 10%. It also gave an Activity [3] of 1%, an Activity [4] of 80 and an Activity [6] of 85%.
For `C=C1/C(=C/C=C/[C@@H]2CC[C@H]([C@@H](C)CC#CC(C)(C)O)C2(C)C)C[C@@H](O)C[C@@H]1O`, the Activity [5] was 10%, the Activity [1] was 0.5 and the Activity [2] was 100%. The Activity [3] was 150%, the Activity [4] was 40 and the Activity [6] was 200%.
In the case of `C=C1/C(=C/C=C/[C@@H]2CC[C@H]([C@@H](C)CCCC(C)(C)O)C2(C)C)C[C@@H](O)C[C@@H]1O`, the Activity [5] is reported as 10%, the Activity [1] is reported as 3 and the Activity [2] is reported as 100%. It also gave an Activity [3] of 85%, an Activity [4] of 70 and an Activity [6] of 100%.
`C=C1/C(=C/C=C/[C@@H]2CC[C@H]([C@H](C)CCCC(C)(C)O)C2(C)C)C[C@@H](O)C[C@@H]1O` was tested, and the Activity [5] was 30%, the Activity [1] was 0.3 and the Activity [2] was 85%. For the same compound, the Activity [3] was 85%, the Activity [4] was 80 and the Activity [6] was 90%.

Source: ChEMBL document CHEMBL1129899, “Synthesis of CD-ring modified 1,25-dihydroxy vitamin D analogues: Five-membered D-ring analogues” (1997)
